Measured values as given in patent US10703748B2, “Diazanaphthalen-3-yl carboxamides and preparation and use thereof” (Samumed, LLC, priority 2017, dated 2020).

Experiments:
DYRK1A kinase = DYRK1A kinase (Homo sapiens, UniProt Q13627); test: DYRK1A kinase activity (Ser/Thr 18 peptide Z-lyte FRET assay); type: biochemical; conditions: recombinant DYRK1A, 30 μM ATP, one hour at room temperature;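 also: kinase activity read as coumarin/fluorescein emission ratio after development step, with unphosphorylated and phosphorylated peptide forms setting 0% and 100% controls, values from dose-response curves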
GSK3β kinase = GSK3β kinase (Homo sapiens, UniProt P49841); test: GSK3β kinase activity (Ser/Thr 09 peptide Z-lyte FRET assay); type: biochemical; conditions: recombinant kinase, 46 μM ATP, one hour at room temperature; read-out: EC50
[1] = tested on: secreted cytokines TNFα, IL-6 and KC-GRO; test: Secreted cytokines in Lipopolysaccharide-stimulated BV-2 cells (Table 9 does not say which cytokine); type: cell-based, mouse; conditions: Mus musculus, BV-2, 5 h; read-out: EC50
[2] = tested on: SW480 colon carcinoma cells; test: Cell viability assay (CellTiter-Glo); conditions: Homo sapiens; for EC50: SW480, 96 h; for inhibition at 10 µM: SW480, read-out: percent inhibition at 10 μM
[3] = tested on: Wnt-responsive Sp5-Luc reporter in SW480 colon carcinoma cells; test: Screening assay for Wnt activity (Sp5-Luc reporter gene assay); conditions: Homo sapiens; for EC50: SW480; for inhibition at 10 µM: SW480, read-out: percent inhibition at 10 μM
IL-6 = IL-6 inhibition in LPS-stimulated human peripheral blood mononuclear cells (HTRF); conditions: Homo sapiens, PBMC; for EC50: 22 h; for inhibition at 10 µM: read-out: percentage in parentheses after EC50 >10
[4] = tested on: α-smooth muscle actin (aSMA) positive LL29 cells; test: Inhibition of the fibrotic process: αSMA staining in TGF-β1 treated LL29 fibroblasts from IPF patients; conditions: Homo sapiens, Fibroblast; for EC50: 96 h; for inhibition at 10 µM: read-out: percentage in parentheses after EC50 >10

GSK3β kinase, sequence (P49841 whole entry): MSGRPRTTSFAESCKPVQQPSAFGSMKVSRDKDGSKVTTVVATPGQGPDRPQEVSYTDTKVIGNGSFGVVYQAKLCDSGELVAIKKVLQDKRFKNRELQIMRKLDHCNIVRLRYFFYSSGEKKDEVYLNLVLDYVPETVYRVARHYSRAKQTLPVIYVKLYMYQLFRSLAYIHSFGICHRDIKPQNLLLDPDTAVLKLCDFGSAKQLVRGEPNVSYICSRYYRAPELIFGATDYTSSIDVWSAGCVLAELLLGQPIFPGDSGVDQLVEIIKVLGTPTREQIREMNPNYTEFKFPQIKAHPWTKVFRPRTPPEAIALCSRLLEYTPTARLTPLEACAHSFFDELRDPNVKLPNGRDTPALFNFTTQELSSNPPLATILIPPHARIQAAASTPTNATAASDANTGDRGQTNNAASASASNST

`O=C(Nc1cc2nc(-c3cncc(NC4CCNCC4)n3)ccc2cn1)C1CCOCC1` [Compound 877, N-(2-(6-(Piperidin-4-ylamino)pyrazin-2-yl)-1,6-naphthyridin-7-yl)tetrahydro-2H-pyran-4-carboxamide] was tested, and the EC50 (DYRK1A kinase) was 16 nM, the EC50 (GSK3β kinase) was 9920 nM and the EC50 [1] was 2700 nM. For the same compound, the EC50 [2] was over 10000 nM, the inhibition at 10 µM [2] was 11.7% and the EC50 [3] was over 10000 nM. The inhibition at 10 µM [3] was 0%, the EC50 (IL-6) was over 10000 nM and the inhibition at 10 µM (IL-6) was 6.8%. For the same compound, the EC50 [4] was over 10000 nM and the inhibition at 10 µM [4] was 23.6%.

`CN1CCN(c2cc(C(=O)Nc3ncc4ccc(-c5cnn(C)c5N)cc4n3)ccn2)CC1` [Compound 1210, N-(7-(5-Amino-1-methyl-1H-pyrazol-4-yl)quinazolin-2-yl)-2-(4-methylpiperazin-1-yl)isonicotinamide] showed an EC50 (DYRK1A kinase) of 4 nM, an EC50 (GSK3β kinase) of over 10000 nM and an EC50 [1] of 1100 nM. For the same compound, the EC50 [2] was 695 nM, the EC50 [3] was 478 nM and the EC50 (IL-6) was 3610 nM. For the same compound, the EC50 [4] was 1400 nM.

Compound `CN1CCc2ccc(C(=O)Nc3cc4cc(-c5cnn(C)c5)ncc4cn3)cc2C1` [Compound 3829, 2-Methyl-N-(6-(1-methyl-1H-pyrazol-4-yl)-2,7-naphthyridin-3-yl)-1,2,3,4-tetrahydroisoquinoline-7-carboxamide] has an EC50 (DYRK1A kinase) of 10 nM, an EC50 (GSK3β kinase) of 763 nM and an EC50 [1] of 533 nM. The EC50 [2] was 9320 nM, the EC50 [3] was 994 nM and the EC50 (IL-6) was over 10000 nM. It also gave an inhibition at 10 µM (IL-6) of 5.3% and an EC50 [4] of 759 nM.

For `CN1CCN(c2cccc(C(=O)Nc3ncc4ccc(-c5cnn(C)c5)cc4n3)c2)CC1` [Compound 1047, N-(7-(1-Methyl-1H-pyrazol-4-yl)quinazolin-2-yl)-3-(4-methylpiperazin-1-yl) benzamide], the EC50 (DYRK1A kinase) was 8 nM, the EC50 (GSK3β kinase) was 661 nM and the EC50 [1] was 780 nM. It also gave an EC50 [2] of 8470 nM, an EC50 [3] of 573 nM and an EC50 (IL-6) of 3710 nM. The EC50 [4] was 1930 nM.

`O=C(Nc1cc2cc(-c3cncc(N[C@H]4CCNC[C@@H]4F)n3)cnc2cn1)C1CC1` [Compound 3599, N-(3-(6-(((3S,4S)-3-Fluoropiperidin-4-yl)amino)pyrazin-2-yl)-1,7-naphthyridin-6-yl)cyclopropanecarboxamide] gave an EC50 (DYRK1A kinase) of 8 nM, an EC50 (GSK3β kinase) of 780 nM and an EC50 [1] of 832 nM. For the same compound, the EC50 [2] was 8850 nM, the EC50 [3] was over 10000 nM and the inhibition at 10 µM [3] was 41.3%. For the same compound, the EC50 (IL-6) was over 10000 nM, the inhibition at 10 µM (IL-6) was 40.1% and the EC50 [4] was 3010 nM.

`CN1CCC(Nc2cncc(C(=O)Nc3cc4cc(-c5cnn(C)c5)ncc4cn3)c2)CC1` [Compound 3783, N-(6-(1-Methyl-1H-pyrazol-4-yl)-2,7-naphthyridin-3-yl)-5-((1-methylpiperidin-4-yl)amino)nicotinamide] showed an EC50 (DYRK1A kinase) of 4 nM, an EC50 (GSK3β kinase) of 2340 nM and an EC50 [1] of 5300 nM. The EC50 [2] was 1970 nM, the EC50 [3] was 1080 nM and the EC50 (IL-6) was over 10000 nM. For the same compound, the inhibition at 10 µM (IL-6) was 1.7% and the EC50 [4] was 2100 nM.

`Cn1cc(-c2cnc3cnc(NC(=O)C4CCN(Cc5ncco5)CC4)cc3c2)cn1` [Compound 2816, N-(3-(1-Methyl-1H-pyrazol-4-yl)-1,7-naphthyridin-6-yl)-1-(oxazol-2-ylmethyl)piperidine-4-carboxamide] gave an EC50 (DYRK1A kinase) of 24 nM, an EC50 (GSK3β kinase) of 5260 nM and an EC50 [1] of 445 nM. For the same compound, the EC50 [2] was over 10000 nM, the inhibition at 10 µM [2] was 23.2% and the EC50 [3] was over 10000 nM. For the same compound, the inhibition at 10 µM [3] was 15.4%, the EC50 (IL-6) was over 10000 nM and the inhibition at 10 µM (IL-6) was 2.2%. The EC50 [4] was over 10000 nM and the inhibition at 10 µM [4] was 27.3%.

Compound `CN1CCN(c2cc(C(=O)Nc3cc4cc(-c5ccc(N)nc5)ncc4cn3)ccn2)CC1` [Compound 4434, N-(6-(6-Aminopyridin-3-yl)-2,7-naphthyridin-3-yl)-2-(4-methylpiperazin-1-yl)isonicotinamide] has an EC50 (DYRK1A kinase) of 12 nM, an EC50 (GSK3β kinase) of over 10000 nM and an EC50 [1] of 9500 nM. It also gave an EC50 [2] of 5150 nM, an EC50 [3] of 8480 nM and an EC50 (IL-6) of 9850 nM. It also gave an EC50 [4] of 1600 nM.

With `Cn1cncc1-c1cc2cc(NC(=O)c3ccc(F)cc3)ncc2cn1` [Compound 4075, 4-Fluoro-N-(6-(1-methyl-1H-imidazol-5-yl)-2,7-naphthyridin-3-yl) benzamide] the EC50 (DYRK1A kinase) was 8 nM, the EC50 (GSK3β kinase) was 966 nM and the EC50 [1] was at least 10000 nM. It also gave an EC50 [2] of over 10000 nM, an inhibition at 10 µM [2] of 35.4% and an EC50 [3] of 5600 nM. It also gave an EC50 (IL-6) of over 10000 nM, an inhibition at 10 µM (IL-6) of 8.1% and an EC50 [4] of over 10000 nM. The inhibition at 10 µM [4] was 39.2%.

Compound `O=C(Nc1ncc2ccc(-c3cncs3)cc2n1)[C@H]1CC[C@H](CN2CC(F)C2)CC1` [Compound 1519, trans-4-((3-fluoroazetidin-1-yl)methyl)-N-(7-(thiazol-5-yl)quinazolin-2-yl)cyclohexane-1-carboxamide] has an EC50 (DYRK1A kinase) of 11 nM, an EC50 (GSK3β kinase) of 772 nM and an EC50 [1] of 69 nM. For the same compound, the EC50 [2] was over 10000 nM, the inhibition at 10 µM [2] was 17.1% and the EC50 [3] was 2280 nM. It also gave an EC50 (IL-6) of over 10000 nM, an inhibition at 10 µM (IL-6) of 2.9% and an EC50 [4] of 2400 nM.

`CN1CCC(n2cc(C(=O)Nc3cc4cc(-c5cncc6[nH]ccc56)cnc4cn3)cn2)CC1` [Compound 3616, N-(3-(1H-Pyrrolo[2,3-c]pyridin-4-yl)-1,7-naphthyridin-6-yl)-1-(1-methylpiperidin-4-yl)-1H-pyrazole-4-carboxamide] gave an EC50 (DYRK1A kinase) of 29 nM, an EC50 (GSK3β kinase) of over 10000 nM and an EC50 [1] of 1200 nM. The EC50 [2] was 504 nM, the EC50 [3] was 485 nM and the EC50 (IL-6) was 2370 nM. For the same compound, the EC50 [4] was 3160 nM.

In the case of `CN1CCC(Oc2ccc(C(=O)Nc3cc4nc(-c5cnn(C)c5)ccc4cn3)cc2)CC1` [Compound 145, N-(2-(1-methyl-1H-pyrazol-4-yl)-1,6-naphthyridin-7-yl)-4-((1-methylpiperidin-4-yl)oxy)benzamide], the EC50 (DYRK1A kinase) is reported as 5 nM, the EC50 (GSK3β kinase) is reported as 2000 nM and the EC50 [1] is reported as 212 nM. It also gave an EC50 [2] of 535 nM, an EC50 [3] of 259 nM and an EC50 (IL-6) of 3250 nM. It also gave an EC50 [4] of 369 nM.

`CN1CCN(c2ncc(C(=O)Nc3cc4nc(-c5cnn(C)c5)ccc4cn3)s2)CC1` [Compound 4539, N-(2-(1-Methyl-1H-pyrazol-4-yl)-1,6-naphthyridin-7-yl)-2-(4-methylpiperazin-1-yl)thiazole-5-carboxamide] showed an EC50 (DYRK1A kinase) of 2 nM, an EC50 (GSK3β kinase) of 2230 nM and an EC50 [1] of 80 nM. The EC50 [2] was 782 nM, the EC50 [3] was 301 nM and the EC50 (IL-6) was over 10000 nM. For the same compound, the inhibition at 10 µM (IL-6) was 37.4% and the EC50 [4] was 1100 nM.

With `Cn1cc(-c2cnc3cnc(NC(=O)c4ccc5ccoc5c4)cc3c2)cn1` [Compound 2929, N-(3-(1-Methyl-1H-pyrazol-4-yl)-1,7-naphthyridin-6-yl)benzofuran-6-carboxamide] the EC50 (DYRK1A kinase) was 17 nM, the EC50 (GSK3β kinase) was over 10000 nM and the EC50 [1] was 234 nM. For the same compound, the EC50 [2] was 1060 nM, the EC50 [3] was 835 nM and the EC50 (IL-6) was over 10000 nM. It also gave an inhibition at 10 µM (IL-6) of 4.5% and an EC50 [4] of 2250 nM.

`O=C(Nc1cc2nc(-c3cncc(NCC4(F)CNC4)n3)ccc2cn1)C1CC1` [Compound 871, N-(2-(6-(((3-Fluoroazetidin-3-yl)methyl)amino)pyrazin-2-yl)-1,6-naphthyridin-7-yl)cyclopropanecarboxamide] gave an EC50 (DYRK1A kinase) of 25 nM, an EC50 (GSK3β kinase) of 360 nM and an EC50 [1] of 306 nM. The EC50 [2] was over 10000 nM, the inhibition at 10 µM [2] was 33.5% and the EC50 [3] was over 10000 nM. The inhibition at 10 µM [3] was 24.7%, the EC50 (IL-6) was 3420 nM and the EC50 [4] was 8050 nM.

`CN1CCC(n2cc(C(=O)Nc3cc4cc(-c5cncc6[nH]ccc56)ncc4cn3)cn2)CC1` [Compound 4523, N-(6-(1H-Pyrrolo[2,3-c]pyridin-4-yl)-2,7-naphthyridin-3-yl)-1-(1-methylpiperidin-4-yl)-1H-pyrazole-4-carboxamide] gave an EC50 (DYRK1A kinase) of 10 nM, an EC50 (GSK3β kinase) of over 10000 nM and an EC50 [1] of 1300 nM. It also gave an EC50 [2] of 513 nM, an EC50 [3] of 718 nM and an EC50 (IL-6) of 3260 nM. The EC50 [4] was 2380 nM.

Compound `CC(C)OC(=O)N1CCC(n2cc(C(=O)Nc3cc4cc(-c5cnn(C)c5)cnc4cn3)cn2)CC1` [Compound 2954, Isopropyl 4-(4-((3-(1-methyl-1H-pyrazol-4-yl)-1,7-naphthyridin-6-yl)carbamoyl)-1H-pyrazol-1-yl)piperidine-1-carboxylate] has an EC50 (DYRK1A kinase) of 28 nM, an EC50 (GSK3β kinase) of over 10000 nM and an EC50 [1] of 491 nM. It also gave an EC50 [2] of 1500 nM, an EC50 [3] of 915 nM and an EC50 (IL-6) of over 10000 nM. It also gave an inhibition at 10 µM (IL-6) of 45% and an EC50 [4] of 3340 nM.

`O=C(Nc1cc2nc(-c3cnco3)ccc2cn1)c1ccncc1` [Compound 592, N-(2-(Oxazol-5-yl)-1,6-naphthyridin-7-yl)isonicotinamide] showed an EC50 (DYRK1A kinase) of 29 nM, an EC50 (GSK3β kinase) of over 10000 nM and an EC50 [1] of 449 nM. For the same compound, the EC50 [2] was over 10000 nM, the inhibition at 10 µM [2] was 11.7% and the EC50 [3] was over 10000 nM. The inhibition at 10 µM [3] was 5%, the EC50 (IL-6) was over 10000 nM and the inhibition at 10 µM (IL-6) was 25.3%. The EC50 [4] was 9 nM.

`Cc1ncc(-c2ccc3cnc(NC(=O)c4cccnc4)cc3n2)s1` [Compound 642, N-(2-(2-Methylthiazol-5-yl)-1,6-naphthyridin-7-yl)nicotinamide] showed an EC50 (DYRK1A kinase) of 6 nM, an EC50 (GSK3β kinase) of 3060 nM and an EC50 [1] of 1300 nM. The EC50 [2] was 1030 nM, the EC50 [3] was 869 nM and the EC50 (IL-6) was over 10000 nM. The inhibition at 10 µM (IL-6) was 22.4% and the EC50 [4] was 988 nM.
